From the supplement of paper PMC8882468
Several values for one entry are separate records, joined by “and”; a condition that tells them apart may be missing. Equal values may be shown once.

Tests used:
Experiment in all cases: CTG-3D luminescence at 96 h relative to day-0 seeding control (ratio to day 0); higher = more growth / less cytotoxicity; PDxO 3D drug screen (set 2), 96 h, CTG-3D normalised to day-0 seeding control.
HCI-001 = tested on: HCI-001 (organoid from a triple-negative breast cancer xenograft)
HCI-008 = tested on: HCI-008 (organoid from a HER2-enriched breast cancer xenograft)
HCI-012 = tested on: HCI-012 (organoid from a breast cancer xenograft)
MDA-MB-231 = tested on: MDA-MB-231

Nc1cc(C(F)(F)F)c(-c2cc(N3CCOCC3)nc(N3CCOCC3)n2)cn1 [buparlisib]
CTG-3D luminescence at 96 h
Conditions | 12.5 pM | 0.00025 µM | 0.005 µM | 0.1 µM | 1 µM | 10 µM | 100 µM | 625 fM
HCI-001, days in culture: 365 | 3.09 | 2.29 | 2.5 | 3.19 | 1.82 | 0.687 | 0.646 | 1.89
HCI-001, days in culture: 397 | 1.95 | 2.38 | 2.48 | 2.22 | 1.46 | 0.715 | 0.507 | 1.44
HCI-001, days in culture: 401 | 1.47 | 1.87 | 1.41 | 1.86 | 1.11 | 0.572 | 0.512 | 1.76
HCI-008, days in culture: 325 | 0.757 | 2.89 | 2.4 | 2.51 | 1.17 | 0.647 | 0.313 | 1.94
HCI-008, days in culture: 340 | 0.632 | 2.38 | 1.94 | 1.55 | 1.56 | – | 0.305 | 1.04
HCI-008, days in culture: 354 | 0.796 | 1.19 | 2.59 | 1.46 | 0.578 | 0.294 | 0.327 | 1.16
HCI-008, days in culture: 382 | 1.52 | 1.82 | 1.45 | 1.71 | 0.652 | 0.363 | 0.104 | 1.9
HCI-012, days in culture: 214 | 1.75 | 3.34 | 1.48 | 2.51 | 1.02 | 0.314 | 0.0491 | 2.11
HCI-012, days in culture: 243 | 1.8 | 2.97 | 2.35 | 2.4 | 1.59 | 0.242 | 0.0324 | 2.37
HCI-012, days in culture: 256 | 2.19 | 2.45 | 2.12 | 2.99 | 1.05 | 0.138 | 0.0266 | 1.97
HCI-012, days in culture: 284 | 1.86 | 2.37 | 1.96 | 2.4 | 1.3 | 0.282 | 0.0339 | 3.54

MDA-MB-231
Conditions | CTG-3D luminescence at 96 h
12.5 pM | 5.18
0.00025 µM | 5.23
0.005 µM | 5.28
0.1 µM | 5.17
1 µM | 4.45
10 µM | 2.28
100 µM | 2.15
625 fM | 5.31

CC(=O)O[C@@]12CO[C@@H]1C[C@H](O)[C@@]1(C)C(=O)[C@H](O)C3=C(C)[C@@H](OC(=O)[C@H](O)[C@@H](NC(=O)OC(C)(C)C)c4ccccc4)C[C@@](O)([C@@H](OC(=O)c4ccccc4)[C@H]21)C3(C)C [docetaxel]
CTG-3D luminescence at 96 h
Conditions | 12.5 pM | 0.00025 µM | 0.005 µM | 0.1 µM | 1 µM | 10 µM | 100 µM | 625 fM
HCI-001, days in culture: 365 | 1.99 | 1.78 | 1.68 | 1.79 | 1.49 | 1.18 | 1.1 | 1.34
HCI-001, days in culture: 397 | 1.11 | 1.7 | 1.28 | 1.67 | 1.72 | 1.72 | 0.311 | 0.889
HCI-001, days in culture: 401 | 1 | 1.57 | 0.829 | 1.35 | 1.02 | 1.19 | 0.514 | 1.16
HCI-008, days in culture: 325 | 1.01 | 1.46 | 1.35 | 1.91 | 2.06 | 1.53 | 0.0817 | 1.14
HCI-008, days in culture: 340 | 0.747 | 1.06 | 1.26 | 0.976 | 0.918 | – | 0.0677 | 0.77
HCI-008, days in culture: 354 | 1.16 | 1.01 | 1.5 | 1.16 | 0.508 | 1.23 | 0.211 | 0.885
HCI-008, days in culture: 382 | 1.56 | 1.35 | 0.719 | 0.823 | 0.446 | 0.547 | 0.0143 | 1.74
HCI-012, days in culture: 214 | 1.03 | 0.8 | 0.461 | 0.578 | 0.404 | 0.777 | 0.105 | 0.817
HCI-012, days in culture: 243 | 1.3 | 1.44 | 0.758 | 0.52 | 0.65 | 0.926 | 0.441 | 1.69
HCI-012, days in culture: 256 | 2.14 | 2.22 | 1.58 | 0.695 | 0.649 | 0.506 | 0.405 | 2.16
HCI-012, days in culture: 284 | 2.14 | 3.21 | 1.16 | 0.569 | 0.537 | 0.49 | 0.0331 | 4.21

MDA-MB-231
Conditions | CTG-3D luminescence at 96 h
12.5 pM | 4.86 and 2.64
0.00025 µM | 3.88 and 2.58
0.005 µM | 3.24 and 2.69
0.1 µM | 2.84 and 2.47
1 µM | 3.11 and 2.65
10 µM | 3.34 and 2.92
100 µM | 1.24 and 1.2
625 fM | 4.81 and 2.82

COc1cccc2c1C(=O)c1c(O)c3c(c(O)c1C2=O)C[C@@](O)(C(=O)CO)C[C@@H]3O[C@H]1C[C@H](N)[C@@H](O)[C@H](C)O1 [epirubicin]
CTG-3D luminescence at 96 h
Conditions | 12.5 pM | 0.00025 µM | 0.005 µM | 0.1 µM | 1 µM | 10 µM | 100 µM | 625 fM
HCI-001, days in culture: 365 | 2.72 | 2.24 | 2.31 | 1.83 | 0.374 | 0.226 | -0.00151 | 2.09
HCI-001, days in culture: 397 | 1.49 | 2.3 | 1.7 | 1.3 | 0.405 | 0.197 | -0.00311 | 1.83
HCI-001, days in culture: 401 | 1.41 | 1.96 | 1.6 | 1.06 | 0.216 | 0.3 | -0.00404 | 1.55
HCI-008, days in culture: 325 | 1.57 | 2.58 | 1.67 | 1.91 | 0.784 | 0.192 | -0.00523 | 1.81
HCI-008, days in culture: 340 | 1.38 | 1.84 | 1.52 | 1 | 0.612 | – | -0.0051 | 1.34
HCI-008, days in culture: 354 | 1.58 | 0.918 | 1.45 | 0.732 | 0.524 | 0.2 | 0.00146 | 1.46
HCI-008, days in culture: 382 | 1.97 | 1.33 | 1.3 | 1.6 | 0.222 | 0.161 | -0.000657 | 1.49
HCI-012, days in culture: 214 | 2.15 | 2.5 | 1.28 | 0.214 | 0.0452 | 0.0186 | -0.0053 | 5.03
HCI-012, days in culture: 243 | 1.9 | 2.59 | 1.74 | 0.228 | 0.0532 | 0.0739 | -0.006 | 2.23
HCI-012, days in culture: 256 | 1.75 | 2.22 | 1.73 | 0.43 | 0.059 | 0.0309 | -0.0077 | 2.4
HCI-012, days in culture: 284 | 1.9 | 2.3 | 1.39 | 0.413 | 0.0294 | 0.0662 | -0.00241 | 3.07

MDA-MB-231
Conditions | CTG-3D luminescence at 96 h
12.5 pM | 5.46 and 4.99
0.00025 µM | 5.52 and 4.95
0.005 µM | 4.84 and 4.76
0.1 µM | 3.26 and 3.33
1 µM | 0.232 and 0.543
10 µM | 0.504 and 0.188
100 µM | -0.0125 and -0.0119
625 fM | 5.48 and 5.03
